# Results taken from patent US9463174B2, “Pharmaceutical composition for the treatment of type-1 diabetes” (priority 2008, dated 2016).
# “Also recorded” adds a separate entry of the source.
# Experiments:
# 8.3-TCR NOD mice = experiment: Prevention of diabetes in transgenic 8.3-TCR NOD mice; type: in vivo
# Excerpt: TCR NOD mice were used to investigate the potential role of GABA on the T-cell function. The 8.3-TCR NOD mouse is a severe T1D mouse model (Amrani A et al, 1999 Clin Invest. 103(8):1201-9) and developed diabetic hyperglycemia at about age of 11 wks (FIG. 8A). Autoimmune diabetes in NOD mice results from destruction of pancreatic b-cells by T lymphocytes. The CD8+ cytotoxic T lymphocytes is thought to be the initial beta-cell insult in diabetes in which the initiation is a Fas-dependent process (Amrani A et al, 1999 Clin Invest. 103(8):1201-9). The 8.3-TCR NOD mouse monoclonal T-cells bearing a T-cell receptor (8.3-TCR) that is representative of TCRs used by CD8+ cytotoxic T lymphocytes propagated from the earliest insulitic lesions of NOD mice.
# GAD65 has long been considered as a major antigen initiating the pathogenesis in T1D. Given that the protective effects of GABA in the development of diabetes in the diabetic animal models, I proposed that as the rate limiting enzyme of GABA synthesis, GAD has important role in maintaining islet function. To determine if treatment of GABA has effects on the expression levels of GAD65, we performed pancreatic GAD staining in the TCR transgenic NOD mice.
# The techniques used for the in vivo and in vitro studies in this embodiment of the disclosure are also described. CD1 mice (Charles River Laboratories, St Constant, Canada), NOD mice and transgenic TCR NOD mice (Jackson Laboratory, USA) were housed under a controlled temperature and a 12-h light/12-h dark cycle in the St. Michael's Hospital Animal facility with free access to food (normal rodent chow) and water, except where noted. All procedures were conducted according to protocols and guidelines approved by the Canadian Council of Animal Care and the St. Michael's Hospital Animal Care committee. Mice were treated with GABA by daily intraperitoneal (i.p.) injection of 20·g GABA per mouse to reach ˜200 μM circulation concentration and PBS as control. The daily treatment is continuously conducted during 60-day experimental period. One wk after the GABA and PBS treatment, diabetes was induced in both groups by i.p.-injection of low-dose streptozotocin (STZ, Sigma Chemical Co., St. Louis, Mo. 40 mg/kg body weight) for 5 consecutive days. The development of hyperglycemia was monitored by measuring blood glucose from the tail vein every third day following STZ injections using an Ascensia ELITE® XL glucose meter. For some studies, overtly diabetic mice induced by STZ and without GABA treatment were divided into two groups: one group started receiving daily i.p. injection of 20·g GABA whereas other group received only PBS. The treatment was continued for 75 days. The handling of the NOD mice were similar to those CD1 mice except the STZ injection. The NOD mice have a susceptibility to spontaneous development of autoimmune T1D. The TCR transgenic 8.3-NOD mice have a markedly accelerated disease (J. Vergdaguer et al, 1997 J Exp Med. 186(10):1663-76).
# Following dewaxing, […] as described previously (Wang Q, Brubaker P L 2002 Diabetologia 45:1263-1273), endogenous peroxidase activity was quenched by incubating sections in 0.3% H2O2 in water for 30 min and antigen retrieval was performed by heating slides in 10 mM sodium citrate buffer, pH 6.0, at ˜70° C. for 30 min. […]
# INS-1 cells = experiment: Cell proliferation assay by 3H-thymidine incorporation; type: cell-based
# Experimental: INS-1 cells were grown to 80-85% confluence in 12-well plates, serum-starved for 24 h and then treated with GABA at various concentrations in the presence of 3 mmol/l glucose. Some cells were also pre-incubated with GABA receptor antagonist for 20 h prior before the treatment. DNA synthesis was measured by incubating cells with 37 kBq/ml 3H-methylthymidine (specific activity: 3000 GBq/mmol; Amersham Pharmacia Biotech) for 4 h. Cells were then washed twice in ice-cold PBS and incubated for 30 min in 1 ml of 5% trichloroacetic acid on ice to precipitate the DNA. The liquid layer was removed by aspiration and 250 μl of 0.1 mol/l sodium hydroxide was added to the cells for 30 min at room temperature. During this time the container was gently shaken. The solubilised material was then transferred to 5 ml of scintillant, and radioactive counts were determined by liquid scintillation counting.
smiles,measurement,setting,value
"NCCCC(=O)O [GABA, gamma-aminobutyric acid]",alpha-cell mass,8.3-TCR NOD mice; GABA-treated TCR-NOD mice,largely reserved
same,islet mass / beta-cell mass,8.3-TCR NOD mice; GABA-treated TCR-NOD mice,largely reserved
same,pancreatic insulin and GAD65/67 staining,8.3-TCR NOD mice; TCR transgenic NOD mice,largely reserved the islet beta-cell mass and the intact association with GAD65; also recorded: reserves insulin and GAD65/67 content
same,development of diabetic hyperglycemia,8.3-TCR NOD mice; daily GABA vs saline-treated,completely prevented the development of diabetic hyperglycemia; also recorded: completely prevents diabetic hyperglycemia
same,lymphocytes (T-cell) infiltration in pancreatic islets,8.3-TCR NOD mice; vs PBS-treated,dramatically blocked; also recorded: obviously diminished
same,3H-thymidine incorporation into INS-1 cells,"INS-1 cells; GABA 100 mM, time-dependent manner",increased the ^3H-thymidine incorporation
same,INS-1 cell proliferation (3H-thymidine incorporation),"INS-1 cells; various concentrations, 3 mmol/l glucose",dose-dependently increased INS-1 cell proliferation
